Measurements reported in US4500526A, “Cephalosporin derivatives” (Bristol-Myers Company, priority 1983, dated 1985).
In brackets after ≈: the same amount, converted by molar mass. Read-outs that look alike come from different tables or passages of the source.

Columns and labels:
[1] = tested on: Ps. aeruginosa (6 strains); assay: MIC, two-fold serial agar dilution, group (G-)-III; format: cell-based; settings: Pseudomonas aeruginosa, read-out: Geometric Mean of MIC
Experimental: (§1) In the primary evaluation of the compounds of this invention, the Minimum Inhibitory Concentrations (MIC's) of the compounds were determined by the two-fold serial agar dilution method in Mueller-Hinton agar against 32 strains of test organisms in six groups. The sample weights of the test compounds were adjusted according to the purity of each compound, so as to give a more accurate measure of the MIC's.
(G-)III: Ps. aeruginosa (6 strains)

[2] = tested on: Cephalothinresistant E. coli (3 strains) and Kl. pneumoniae (3 strains); assay: MIC, two-fold serial agar dilution, group (G-)-Ib; format: cell-based; settings: Escherichia coli, read-out: Geometric Mean of MIC
Experimental: as §1
(G-)Ib: Cephalothinresistant E. coli (3 strains) and Kl. pneumoniae (3

[3] = tested on: Cephalothinsensitive E. coli (2 strains), Kl. pneumoniae (1 strain) and Pr. mirabilis (2 strains); assay: MIC, two-fold serial agar dilution, group (G-)-Ia; format: cell-based; settings: 5 strains, Mueller-Hinton agar, read-out: Geometric Mean of MIC
Experimental: as §1
(G-)Ia: Cephalothinsensitive E. coli (2 strains), Kl. pneumoniae (1
strain) and Pr. mirabilis (2 strains)

[4] = Mouse blood levels after single intramuscular injection; format: in vivo, mice
Experimental: The absorption of some of the preferred compounds were determined in mice following a single intramuscular injection of the test compound (dissolved in 0.1M phosphate buffer; pH 7) at a dosage of 20 mg/kg. Blood samples were collected from the orbital sinuses into heparinized capillary tubes and assayed in Nutrient Agar (pH 6.6) using E. coli Ess-22-31 as the test organism. The blood levels at various time intervals, the half-life values (t1/2) and the areas under the curve (AUC) are shown in Table 2.

[5] = tested on: Penicillinresistant S. aureus (5 strains); assay: MIC, two-fold serial agar dilution, group (G+)-Ib; format: cell-based; settings: Staphylococcus aureus, read-out: Geometric Mean of MIC
Experimental: as §1
(G+)Ib: Penicillinresistant S. aureus (5 strains)

[6] = tested on: Penicillinsensitive S. aureus (5 strains); assay: MIC, two-fold serial agar dilution, group (G+)-Ia; format: cell-based; settings: Staphylococcus aureus; (G+)-Ia, 5 strains, Mueller-Hinton agar; read-out: Geometric Mean of MIC
Experimental: as §1
(G+)Ia: Penicillinsensitive S. aureus (5 strains)

[7] = tested on: M. morganii (1 strain), Ent. cloacae (2 strains) and Ser. marcescens (2 strains); assay: MIC, two-fold serial agar dilution, group (G-)-II; format: cell-based; settings: read-out: Geometric Mean of MIC
Experimental: as §1
(G-)II: M. morganii (1 strain), Ent. cloacae (2 strains) and Ser.

E. coli Juhl = assay: Median protective dose in infected mice; format: in vivo; settings: Escherichia coli, im, immediately after intraperitoneal challenge, read-out: PD50
Experimental: (§2) The median protective dose (PD50) of some of the preferred compounds against various microorganisms was determined in mice by intramuscular administration of the test compound immediately after an intraperitoneal bacterial challenge.

P. aeruginosa A9843 = assay: Median protective dose in infected mice; format: in vivo; settings: Pseudomonas aeruginosa, im, immediately after intraperitoneal challenge, read-out: PD50
Experimental: as §2

S. aureus Smith = assay: Median protective dose in infected mice; format: in vivo; settings: Staphylococcus aureus, im, immediately after intraperitoneal challenge, read-out: PD50
Experimental: as §2

[8] = (G-)-III, 6 strains, Mueller-Hinton agar
[9] = (G+)-Ib, 5 strains, Mueller-Hinton agar
[10] = (G-)-II, 5 strains, Mueller-Hinton agar

Compound | MIC [1, 8] | MIC [2] | MIC [3] | AUC ([4]; in vivo, im, 20 mg/kg) | concentration at 10 min ([4]; in vivo, im, 20 mg/kg) | concentration at 20 min ([4]; in vivo, im, 20 mg/kg) | concentration at 0.5 h ([4]; in vivo, im, 20 mg/kg) | concentration at 40 min ([4]; in vivo, im, 20 mg/kg) | concentration at 50 min ([4]; in vivo, im, 20 mg/kg) | concentration at 1 h ([4]; in vivo, im, 20 mg/kg) | concentration at 1.5 h ([4]; in vivo, im, 20 mg/kg) | concentration at 2 h ([4]; in vivo, im, 20 mg/kg) | half-life ([4]; in vivo, im, 20 mg/kg) | MIC [5, 9] | MIC [6] | MIC [7, 10] | ED50 (E. coli Juhl) | ED50 (P. aeruginosa A9843) | ED50 (S. aureus Smith) | MIC [7] | other results
CO/N=C(\C(=O)NC1C(=O)N2C(C(=O)[O-])=C(C[n+]3ccc4sc(NC(C)=O)nc4c3)CS[C@H]12)c1csc(N)n1 (stereo partly shown) [Ip, 7-[(Z)-2-(2-Aminothiazol-4-yl)-2-methoxyiminoacetamido]-3-(2-acetylamino-5-thiazolo[4,5-c]pyridinio)methyl-3-cephem-4-carboxylate] | 11 µg/mL (≈ 18.7 µM) | 0.4 µg/mL (≈ 0.68 µM) | 0.037 µg/mL (≈ 0.0629 µM) | 16000 ng·h/mL | 24000 ng/mL | 18000 ng/mL | 13000 ng/mL | 10000 ng/mL | 6800 ng/mL | 5500 ng/mL | 2500 ng/mL | 1400 ng/mL | 27 min | 0.8 µg/mL (≈ 1.36 µM) | 0.34 µg/mL (≈ 0.578 µM) | 0.68 µg/mL (≈ 1.16 µM) | 0.29 mg/kg | 16 mg/kg | 1 mg/kg |  | 
Cc1nc2c[n+](CC3=C(C(=O)[O-])N4C(=O)C(NC(=O)/C(=N\OC5(C(=O)O)CCC5)c5csc(N)n5)[C@H]4SC3)ccc2s1 (stereo partly shown) [Im, 7-[(Z)-2-(2-Aminothiazol-4-yl)-2-(1-carboxycyclobut-1-oxyimino)-acetamido]-3-(2-methyl-5-thiazolo[4,5-c]pyridinio)methyl-3-cephem-4-carboxylate] |  | 0.56 µg/mL (≈ 0.889 µM) | 0.027 µg/mL (≈ 0.0429 µM) | 7100 ng·h/mL | 13000 ng/mL | 10000 ng/mL | 6900 ng/mL | 4800 ng/mL | 2700 ng/mL | 2000 ng/mL | 480 ng/mL | < 200 ng/mL | 16 min | 8.8 µg/mL (≈ 14 µM) | 3.4 µg/mL (≈ 5.4 µM) | 0.25 µg/mL (≈ 0.397 µM) | 0.1 mg/kg | 9 mg/kg | 9.4 mg/kg |  | MIC [1]: 2.5 µg/mL (≈ 3.97 µM)
Nc1nc(/C(=N/OC2(C(=O)O)CCC2)C(=O)NC2C(=O)N3C(C(=O)[O-])=C(C[n+]4ccc5sc(N)nc5c4)CS[C@H]23)cs1 (stereo partly shown) [Ik, 7-[(Z)-2-(2-Aminothiazol-4-yl)-2-(1-carboxycyclobut-1-oxyimino)-acetamido]-3-(2-amino-5-thiazolo[4,5-c]pyridinio)methyl-3-cephem-4-carboxylate] | 1.4 µg/mL (≈ 2.22 µM) | 0.36 µg/mL (≈ 0.571 µM) | 0.015 µg/mL (≈ 0.0238 µM) |  | 20000 ng/mL | 16000 ng/mL | 11000 ng/mL | 8200 ng/mL | 5200 ng/mL | 4100 ng/mL | 1800 ng/mL | 670 ng/mL | 22 min | 3.3 µg/mL (≈ 5.23 µM) | 1.4 µg/mL (≈ 2.22 µM) | 0.27 µg/mL (≈ 0.428 µM) | 0.046 mg/kg | 5.5 mg/kg | 3 mg/kg |  | AUC ([4]; blood, mice, 20 mg/kg im, read-out: AUC): 13000 ng·h/mL
CO/N=C(\C(=O)NC1C(=O)N2C(C(=O)[O-])=C(C[n+]3ccc4sc(N(C)C)nc4c3)CS[C@H]12)c1csc(N)n1 (stereo partly shown) [Iu, 7-[(Z)-2-(2-Aminothiazol-4-yl)-2-methoxyiminoacetamido]-3-(2-dimethylamino-5-thiazolo[4,5-c]pyridinio)methyl-3-cephem-4-carboxylate] | 6.3 µg/mL (≈ 11 µM) | 0.11 µg/mL (≈ 0.191 µM) | 0.012 µg/mL (≈ 0.0209 µM) | 9800 ng·h/mL | 18000 ng/mL | 13000 ng/mL | 9600 ng/mL | 5500 ng/mL | 3400 ng/mL | 2600 ng/mL | 1000 ng/mL | 340 ng/mL | 19 min | 0.8 µg/mL (≈ 1.39 µM) | 0.46 µg/mL (≈ 0.8 µM) |  | 0.013 mg/kg | 4.6 mg/kg | 0.48 mg/kg | 0.23 µg/mL (≈ 0.4 µM) | 
C=CCO/N=C(\C(=O)NC1C(=O)N2C(C(=O)[O-])=C(C[n+]3ccc4scnc4c3)CSC12)c1csc(N)n1 (stereo not shown) [Ic, 7-[(Z)-2-Allyloxyimino-2-(2-aminothiazol-4-yl)acetamido]-3-{(5-thiazolo[4,5-c]pyridino)methyl}-3-cephem-4-carboxylate] | 3.9 µg/mL (≈ 6.99 µM) | 0.44 µg/mL (≈ 0.789 µM) | 0.053 µg/mL (≈ 0.095 µM) | 12000 ng·h/mL | 18000 ng/mL | 14000 ng/mL | 10000 ng/mL | 8200 ng/mL | 5800 ng/mL | 3600 ng/mL | 1900 ng/mL | 1300 ng/mL | 28 min | 0.56 µg/mL (≈ 1 µM) | 0.32 µg/mL (≈ 0.574 µM) |  | 0.048 mg/kg | 8.6 mg/kg | 1.1 mg/kg | 0.66 µg/mL (≈ 1.18 µM) | 
C#CCO/N=C(\C(=O)NC1C(=O)N2C(C(=O)[O-])=C(C[n+]3ccc4sc(N)nc4c3)CS[C@H]12)c1csc(N)n1 (stereo partly shown) [If, 7-[(Z)-2-(2-Aminothiazol-4-yl)-2-(propargyloxyimino)acetamido]-3-(2-amino-5-thiazolo[4,5-c]pyridinio)methyl-3-cephem-4-carboxylate] | 2.1 µg/mL (≈ 3.68 µM) | 0.4 µg/mL (≈ 0.701 µM) | 0.029 µg/mL (≈ 0.0508 µM) | 9100 ng·h/mL | 14000 ng/mL | 11000 ng/mL | 7300 ng/mL | 4200 ng/mL | 3600 ng/mL | 3300 ng/mL | 2000 ng/mL | 1200 ng/mL | 34 min |  | 0.3 µg/mL (≈ 0.526 µM) | 0.35 µg/mL (≈ 0.613 µM) | 0.013 mg/kg | 3.3 mg/kg | 0.36 mg/kg |  | MIC [5]: 0.8 µg/mL (≈ 1.4 µM)
CO/N=C(\C(=O)NC1C(=O)N2C(C(=O)[O-])=C(C[n+]3ccc4sc(C=O)nc4c3)CSC12)c1csc(N)n1 (stereo not shown) [Iw, 7-[(Z)-2-(2-Aminothiazol-4-yl)-2-methoxyiminoacetamido]-3-(2-formylthiazolo[4,5-c]pyridinio)methyl-3-cephem-4-carboxylate] | 1.7 µg/mL (≈ 3.04 µM) | 0.17 µg/mL (≈ 0.304 µM) | 0.016 µg/mL (≈ 0.0286 µM) | 11000 ng·h/mL | 20000 ng/mL | 19000 ng/mL | 8900 ng/mL | 6600 ng/mL | 3900 ng/mL | 2000 ng/mL | 1000 ng/mL | 480 ng/mL | 19 min |  | 0.53 µg/mL (≈ 0.947 µM) |  | 0.015 mg/kg | 4.7 mg/kg | 1.3 mg/kg | 0.2 µg/mL (≈ 0.357 µM) | MIC [5]: 1.6 µg/mL (≈ 2.86 µM)
